Results as given in US8809268B2, “Combination therapy to combat helminth resistance” (The Regents of The University of California, priority 2008, dated 2014).
≈ marks a conversion by molar mass, not a printed value. Where “and” joins values, the source holds several entries; their conditions need not be identical. Equal entries are not always repeated. Where two headings read alike, the source gives them in different places.

Experiments:
C. elegans [1] = assay: whole plant or invertebrate; details: for LC50: 6 days at 25° C.; for viability of trb mutant nematodes at concentrations where most or all wild-type nematodes were dead: tribendimidine: trb-1 to trb-4, 100 μg/ml and greater, levamisole: trb-1, trb-2, trb-4, 1000 μM or greater
Protocol: LC50 assays determine the inhibitory concentration at which 50% of the nematodes are dead under certain conditions as calculated using the PROBIT algorithm. LC50 assays start with wild-type (N2) L4 nematodes. To get L4 nematodes, synchronous L1-staged nematodes (as per developmental assay) were plated onto OP50-seeded ENG plates (see below) and put at 20° for 44 h. The now L4-staged larvae were then washed off with water, spun down at 1800 rpm for 40 seconds, re-suspended with SS Media, spun again, and re-suspended in special SS Media to a concentration of 4 nematodes/μl. The assay was set up in a 48-well microtiter plate. Each well contained: 5 μl L4 nematodes (˜20 total), 40 μl of OP50 bacteria as a food source (see below for preparation), 20 μl of tribendimidine (prepared as below), 5 μl of FUdR (8 mM stock; see below), and SS Medium for a total of 200 μl. Each well was set up in triplicate. The plates were wrapped in moist paper towels, placed in a covered plastic box, and incubated at 25° C. for 6 days. The plates were then removed from the incubator and the nematodes transferred with a glass pipette into the well of a spot glass. Each nematode was then scored for dead or alive as follows. Using a thin platinum wire, each nematode was touched to see if it moved within 10 seconds of being touched. If it moved, it was scored as alive. If not, the touch was repeated a second time. If it moved after the second touch, it was scored as alive. […] The number of alive and dead nematodes was tallied for each well. The data from triplicate wells were combined into a single data point. The experiment was repeated for a total of three times on three different days (so a total of 9 wells per data point).
A tribendimidine stock solution was prepared at 4 mg/ml at 1% DMSO in SS Media (final concentration in the well will be 0.1% DMSO). 1% DMSO in SS Media was used as a dilutant to set up serial dilutions. For example, tube 1 contained 160 μl of 4 mg/ml Trib in 1% DMSO. Tube 2 contained 80 μl of the solution in Tube 1, diluted with 80 μl 1% DMSO (1:1 dilution; tube 2). Tube 3 contained 80 μl of the solution from Tube 2, diluted with 80 microliters 1% DMSO, etc. . . .
The trb mutant nematodes were isolated in the forward genetic screen for tribendimidine resistance described above. The LC50 assay was performed as previously described. A levamisole stock solution (100 mM stock) was prepared in water. Dilutions (2-fold) were made in SS Media accordingly such that 20 μl aliquots were added per well to give rise to the desired concentration.

C. elegans [2] = assay: Visual assay on tribendimidine, levamisole or pyrantel plates; details: tribendimidine and levamisole plates 100 μg/ml, pyrantel 100 mM stock 1:50 in agar
Protocol: Tribendimidine plates: stock solution (4 mg/ml) in water was prepared and added into standard C. elegans NG agar media (2.5 ml/100 ml) to a final concentration of 100 μg/ml. The mixture was poured into 35 mm plates (4 ml/plate). The plates were stored up to one week at 4° C. The plates were spread with OP50, a laboratory strain of E. coli commonly used as a food source for C. elegans. Resistant=good health and motility; susceptible=contracted, pale color, move slowly.

wild-type C. elegans = type: in vivo, Caenorhabditis elegans
C. elegans [3] = assay: Brood size assay; type: in vivo, Caenorhabditis elegans; details: bre-5 mutant vs wild-type, 200 μg/ml tribendimidine, P<0.01
Protocol: L4 staged worms were used. One worm was picked up with an eyelash pick and placed in SS Media in a 48-well plate. […] The total volume was 200 μl. Each drug concentration was repeated in triplicate. The plates were incubated for 64 h at 25° C. The progeny were then transferred out of the well with a pipette onto an empty NG agar plate for counting. The experiment was repeated a total of three times.

C. elegans [4] = assay: whole plant or invertebrate; type: in vivo, Caenorhabditis elegans; details: for IC50: Caenorhabditis elegans, 60 h
C. elegans [5] = assay: Developmental assay on Cry14A dose response plates +/- levamisole; type: in vivo, Caenorhabditis elegans; details: N2 wild-type, levamisole 0.75 μg/ml
Protocol: Similar experiments with a strain that produces Cry14A, alone and in combination with levamisole were performed. […] The Bt strain used in these experiments expressed Cry14A and two insecticidal Cry proteins (Cry34A and Cry35A) that are not expected to affect nematodes. […] To confirm this conclusion, an independent test of synergy between levamisole and Cry14A was carried out. In these experiments, N2 wild-type worms were plated onto Cry14A plates+/−levamisole.

[6] = Caenorhabditis elegans, 144 h, bre-2 mutant (Cry5B-resistant)
[7] = Caenorhabditis elegans, 144 h, bre-5 (ye17) mutant (Cry5B-resistant)
[8] = Caenorhabditis elegans, 144 h, wild-type (N2), L4 nematodes
[9] = trb-1, trb-2, trb-3, trb-4 mutants
[10] = combination of Cry5B and nAChR agonist, 1:1 ratio (μg/ml)
[11] = combination of Cry6A and levamisole
[12] = combination of Cry21A and levamisole, 3 days at 20° C.
[13] = combination of levamisole and Bt strain producing Cry14A (also Cry34A, Cry35A)

| SMILES | LC50 (C. elegans [1]; [6]) [µg/mL] | LC50 (C. elegans [1]; [7]) [µg/mL] | LC50 (C. elegans [1]; [8]) [µg/mL] | LC50 (C. elegans [1]; wild-type (N2), L4 nematodes) | appearance of nematodes on drug plates (C. elegans [2]; [9]) | appearance of nematodes on drug plates (C. elegans [2]; wild-type) | synergism factor (CI value) at ED75 (wild-type C. elegans; [10]) | synergism factor (CI value) at ED90 (wild-type C. elegans; [10]) | synergism factor (CI value) at ED95 (wild-type C. elegans; [10]) | viability of trb mutant nematodes at concentrations where most or all wild-type nematodes were dead (C. elegans [1]) | also measured |
| --- | --- | --- | --- | --- | --- | --- | --- | --- | --- | --- | --- |
| CN1CCCN=C1/C=C/c1cccs1 [Pyrantel] | 10.9 (≈ 52.7 µM) | 114 (≈ 553 µM) | 502 (≈ 2430 µM) | 594.956 µg/mL (≈ 2880 µM) | resistant | sick | 0.74 | 0.73 | 0.72 |  |  |
| C/C(=N\c1ccc(/N=C/c2ccc(/C=N/c3ccc(/N=C(\C)N(C)C)cc3)cc2)cc1)N(C)C [Tribendimidine] | 7.27 (≈ 16.1 µM) | 12.3 (≈ 27.2 µM) | 54.4 (≈ 120 µM) | 58.372 µg/mL and 57.38 µg/mL | resistant | sick | 0.28 | 0.19 | 0.14 | mostly or all alive | response of levamisole-resistant mutants in LC50 assay (C. elegans [1]; mutants in 11 levamisole resistance genes (lev-1, lev-8, lev-9, lev-10, lev-11, unc-22, unc-29, unc-38, unc-50, unc-63, unc-74), high concentrations): resistant to tribendimidine; brood size, mutant relative to wild-type (C. elegans [3]): reduced significantly; IC50 (C. elegans [4]; read-out: IC50 (inhibitory concentration at which 50% of the larvae are unable to complete development), wild-type (N2), L1 larvae, 60 h at 20° C.): 18.4 µg/mL (≈ 40.6 µM); IC50 (C. elegans [4]; read-out: IC50 (larval development), bre-5 (ye17) mutant (Cry5B-resistant), 60 h at 20° C.): 13.2 µg/mL (≈ 29.1 µM); IC50 (inhibitory concentration at which 50% of the larvae are unable to complete development) (C. elegans [4]; wild-type (N2), L1 larvae, 60 h at 20° C.): 14.718 µg/mL |
| c1ccc([C@H]2CN3CCSC3=N2)cc1 [Levamisole] | 1.16 (≈ 5.68 µM) | 9.99 (≈ 48.9 µM) | 19.6 (≈ 96 µM) | 11.712 µg/mL (≈ 57.3 µM) | resistant | sick | 0.29 | 0.22 | 0.19 | mostly or all alive | % alive (C. elegans [1]; trb-3(ye494) nematodes at 1 mM (1000 μM) levamisole): > 40%; effect of levamisole alone on worm development (C. elegans [5]): does not inhibit worm development; synergism factor (CI value) at ED75 (wild-type C. elegans; [11]): 0.96; synergism factor (CI value) at ED90 (wild-type C. elegans; [11]): 0.86; synergism factor (CI value) at ED95 (wild-type C. elegans; [11]): 0.82; synergism factor (CI value) at ED75 (wild-type C. elegans; [12]): 0.52; synergism factor (CI value) at ED90 (wild-type C. elegans; [12]): 0.42; synergism factor (CI value) at ED95 (wild-type C. elegans; [12]): 0.37; synergism factor (CI value) at ED75 (wild-type C. elegans; [13]): 0.60; synergism factor (CI value) at ED90 (wild-type C. elegans; [13]): 0.50; synergism factor (CI value) at ED95 (wild-type C. elegans; [13]): 0.44 |
